In patent US7732200B2, “Materials and methods for nerve grafting, selection of nerve grafts, and in vitro nerve tissue culture” (University of Florida Research Foundation, Inc., priority 2001, dated 2010):

Tests used:
[1] = tested on: embryonic chick DRG neurons; test: Cryoculture bioassay of chondroitinase-treated acellular rat nerve segments; format: cell-based
Text: (§1) Preparation of acellular nerve grafts treated with chondroitinase: Adult (180-200 g) female SPRAGUE DAWLEY rats (HARLAN, Indianapolis, Ind.) were used as nerve donors and recipient hosts. Donor rats were anesthetized with halothane and decapitated. Sciatic nerves were exposed through a gluteal muscle-splitting incision and isolated free of underlying fascia. A 15-mm nerve segment was excised rostral to the bifurcation into common peroneal and tibial nerves. The segments were rinsed with cold sterile Ringer's solution, stabilized by pinning the ends to a thin plastic support, and transferred to a cryogenic vial. The vials were submerged in liquid nitrogen for 2 minutes and then transferred to a 37° C. water bath for 2 minutes. This freeze/thaw cycle was repeated, yielding acellular nerve grafts that were then stored in liquid nitrogen. On the day before grafting, the nerve grafts were warmed to room temperature and incubated in 100 μl phosphate buffered saline pH 7.4 (PBS) containing 2 units/ml chondroitinase ABC (SIGMA, St. Louis, Mo.) or in PBS (vehicle) only for 16 hours at 37° C. The grafts were rinsed twice with Ringer's and kept on ice prior to use. The chondroitinase ABC preparation was highly purified and stated by the manufacturer to be essentially free of protease activity.
Cryoculture bioassay. Cryoculture is a neurite outgrowth assay in which neurons are cultured directly on fresh/frozen nerve sections and was performed as described previously (Ferguson T A et al. [2000] Mol Cell Neurosci, 16:157-167). Briefly, chondroitinase- and vehicle-treated nerve segments were sectioned at 20 μm, mounted on sterile, aminopropyltriethoxysilane (APTS)-coated coverslips and stored at −20° C. until used. Where indicated, sections were treated with chondroitinase ABC (0.1 unit/ml) or vehicle (50 mM Tris-HCl, pH 8.0), containing 50 mM NaCl) for 2 h at 37° C. Purified dorsal root ganglionic (DRG) neurons from day 8 chick embryos were seeded directly on the nerve sections in a defined N2 medium (Bottenstein J E et al. [1980] Exp Cell Res 125:183-190) containing 10 ng/ml nerve growth factor. Cryoculture assays were terminated after 24 h of incubation by fixation with 100% methanol. Neuritic growth by DRG neurons was accessed by GAP-43 immunofluorescent labeling. […] Neurite lengths were measured directly using IMAGE-PRO PLUS software (MEDIA CYBERNETICS, Silver Springs, Md.). At least 250 neurons with neurites greater than one cell body (˜15 μm) were scored for each condition in each experiment.
Inactivation of inhibitory CSPG in chondroitinase-treated acellular nerve was determined by cryoculture bioassay. Embryonic chick DRG neurons were seeded onto sections of prepared nerve segments and the neurite-promoting activity was assessed by scoring neurite growth. […]

[2] = tested on: chick DRG neurons; test: Cryoculture assay using human nerve segments; format: cell-based; conditions: DRG neurons 24 h; P<0.001 vs vehicle
Method: Cryoculture bioassay. Cryoculture is a neurite outgrowth assay in which neurons are cultured directly on fresh/frozen nerve sections and was performed as described previously (Ferguson T A et al. [2000] Mol Cell Neurosci, 16:157-167). Briefly, chondroitinase- and vehicle-treated nerve segments were sectioned at 20 μm, mounted on sterile, aminopropyltriethoxysilane (APTS)-coated coverslips and stored at −20° C. until used. Where indicated, sections were treated with chondroitinase ABC (0.1 unit/ml) or vehicle (50 mM Tris-HCl, pH 8.0), containing 50 mM NaCl) for 2 h at 37° C. Purified dorsal root ganglionic (DRG) neurons from day 8 chick embryos were seeded directly on the nerve sections in a defined N2 medium (Bottenstein J E et al. [1980] Exp Cell Res 125:183-190) containing 10 ng/ml nerve growth factor. Cryoculture assays were terminated after 24 h of incubation by fixation with 100% methanol. Neuritic growth by DRG neurons was accessed by GAP-43 immunofluorescent labeling. Epifluorescent photomicrographs were acquired as described for tissue sections. Neurite lengths were measured directly using IMAGE-PRO PLUS software (MEDIA CYBERNETICS, Silver Springs, Md.). At least 250 neurons with neurites greater than one cell body (˜15 μm) were scored for each condition in each experiment. […]

[3] = tested on: CSPG; test: CSPG neoepitope immunolabeling of chondroitinase-treated human nerve segments
Text: Many of the experiments described in the examples above performed using rat nerves also have been replicated using human nerve. Except where otherwise indicated, the procedures described in Examples 1 and 2 using rat nerve were also followed in Examples 6 and 7 using human nerve. Human sural and tibial nerves were obtained fresh from surgical leg amputation.
Human nerves were first examined to determine if their content of CSPG and laminin was similar to that observed in rat nerves. […] Human nerves stained for CSPG neoepitope and laminin are shown, respectively, in FIGS. 9A and 9B.

[4] = tested on: CSPG; test: CSPG neoepitope (Ab1918) and laminin immunolabeling of acellular nerve segments treated en bloc; conditions: acellular rat sciatic nerve segments bathed en bloc 16 h, 2 units/ml
Text: as §1, with “The chondroitinase ABC preparation was highly purified and stated by the manufacturer to be essentially free of protease activity.” left out
Immunocytochemistry. Axonal regeneration was assessed by GAP-43 immunofluorescence and digital image analysis. […]

chondroitinase ABC
average neurite length ([1]; acellular nerve pretreated en bloc, DRG neurons 24 h): 96 μm | increase in neurite growth compared to the control condition ([1]; en bloc treatment vs en bloc vehicle): 95% | increase in neurite-promoting activity by post-treatment of sections ([1]; nerve treated en bloc with vehicle only, sections post-treated 0.1 unit/ml 2 h): 86% | effect of post-treatment on sections from en bloc treated nerve ([1]; sections of en bloc chondroitinase-treated nerve grafts): only a slight additive effect | growth-promoting properties of human nerves (neurite length) [2]: increased | CSPG side chain degradation by neoepitope labeling [3]: effectively degraded | CSPG degradation by Ab1918 neoepitope immunostaining [4]: thoroughly degraded CSPG side-chains
